The record followed here is patent US7605168B2 (Plexxikon, Inc., priority 2004, dated 2009).

In assay [1] the target is T1, PDE4B: catalytic domain of human PDE4B from S152-S528 (Homo sapiens, UniProt Q07343).
T1 construct: The catalytic domain of human PDE4B from S152-S528; His6 (N, cleaved yes); thrombin cleavage site (N, cleaved yes); made in house; host or cells: E. coli BL21 (DE3) RIL
Description: PDE4 IC50 determination by Scintillation Proximity Assay (SPA), PDE4B catalytic domain. The conditions noted are these: [3H]cAMP SPA, 30 min at 30° C. Type of assay: biochemical. The procedure, abridged: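 Human PDE4B catalytic domain (80 ng/ml) hydrolysed [3H]cAMP in 50 mM Tris pH 7.5, 8.3 mM MgCl, 1.7 mM EGTA, 0.01% BSA for 30 min at 30 °C. Reaction was stopped with yttrium silicate SPA beads in 18 mM ZnSO4, and bound [3H]AMP was counted by scintillation. IC50 came from non-linear regression.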

In assay [2] the target is T2, PDE4B2: full-length human PDE4B2 isozyme (Homo sapiens, UniProt Q07343).
T2 construct: made in house; host or cells: baculovirus infected insect cells (pFastBacHT)
Description: PDE4 IC50 determination by Scintillation Proximity Assay (SPA), full-length PDE4B2. Type of assay: biochemical. The conditions noted are these: cell lysate, [3H]cAMP SPA. The procedure, abridged: (§1)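 Unpurified enzyme from cell lysates (PDE4B2 2.5 μl, PDE4D5 0.083 μl of 50% glycerol stock/ml) hydrolysing [3H]cAMP in 50 mM Tris pH 7.5, 8.3 mM MgCl, 1.7 mM EGTA, 0.01% BSA, 30 min at 30 °C. Stopped with yttrium silicate SPA beads in 18 mM ZnSO4; bead-bound [3H]AMP counted. IC50 by non-linear regression.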
(In general: In a scintillation proximity assay essentially only radioactivity close to the scintillant gives light.)

The target in assay [3] is T3, PDE4D5: full-length human PDE4D5 isozyme (Homo sapiens, UniProt Q08499).
T3 construct: made in house; host or cells: baculovirus infected insect cells (pFastBacHT)
Description: PDE4 IC50 determination by Scintillation Proximity Assay (SPA), full-length PDE4D5. In kind it is biochemical. The conditions noted are these: cell lysate, [3H]cAMP SPA. Summed up: as §1

The test system of assay [4] is TNF-α release from whole blood cultures stimulated with LPS. The experiment in a line: IC50 by TNF alpha production upon stimulation of whole blood cultures with LPS. In kind it is cell-based. Particulars: human whole blood (buffy coat) culture, 100 ng/ml LPS, 4 hours; read-out: h TNFα IC50. The procedure, abridged: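 Human buffy coat, diluted with 7 volumes of RPMI/2.5% heat-inactivated FBS, was preincubated with compound (8-point 1:3 series) for 1 h at 37 °C. It was then stimulated with 100 ng/ml LPS (final) for 4 h. Supernatant TNF-α was measured by sandwich ELISA at 450 nm, and IC50 was set between DMSO (0%) and PDE4-inhibitor (100%) controls.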

Assay [5] concerns TNFα levels in serum of LPS-challenged rats. Description: Rat inhibition studies: serum TNFα after iv LPS challenge. In kind it is in vivo. The conditions noted are these: LPS 0.1 mg/kg iv 2 h after dosing, percent decrease in serum TNFα versus vehicle, read-out: % inhibition r TNFα; for inhibition in vivo at 5 mg/kg: 5 mg/kg po. On the procedure: All studies were done with male rats CD (SD) IGS BR (Crl) (Charles River, France), which were grouped in to 5 animal groups.
At the end of the acclimatization period, the non-fasted rats were weighed, individually identified on the tail with a permanent marker and administered by oral (po) or interperitoneal (ip) route with either vehicle, reference or test compound in a volume of 10 mL/kg adapted to the body weight. The animals were gathered in groups of 5 animals in a polystyrene labeled cage with sawdust covered floors. 2-hours after vehicle, reference or test substance administration, rats received an intravenous (iv) injection of 0.1 mg/kg LPS in a volume of 1 mL/kg of body weight. 2 h after LPS challenge (or as indicated in Tables 3B and 4B), blood samples were collected into tubes without anticoagulant by retro-orbital puncture under gas (isoflurane) anesthesia. Samples were allowed to clot at room temperature for 5 to 10 min then put on ice until there were prepared by centrifugation (6000×g for 3 min at 4° C.) and stored at −20° C. until use. TNFα levels were measured in serum samples in duplicate by ELISA technique according to the manufacturer's procedure (Rat TNFα kit Quantikine M (RTA00, R&D System, France)). Data are reported as percent decrease in observed TNFα levels versus TNFα levels observed for vehicle dosed animal groups.

SMILES strings stand for the structures.

T2 sequence (Q07343 with tags, fused parts or gaps isoform Q07343-2): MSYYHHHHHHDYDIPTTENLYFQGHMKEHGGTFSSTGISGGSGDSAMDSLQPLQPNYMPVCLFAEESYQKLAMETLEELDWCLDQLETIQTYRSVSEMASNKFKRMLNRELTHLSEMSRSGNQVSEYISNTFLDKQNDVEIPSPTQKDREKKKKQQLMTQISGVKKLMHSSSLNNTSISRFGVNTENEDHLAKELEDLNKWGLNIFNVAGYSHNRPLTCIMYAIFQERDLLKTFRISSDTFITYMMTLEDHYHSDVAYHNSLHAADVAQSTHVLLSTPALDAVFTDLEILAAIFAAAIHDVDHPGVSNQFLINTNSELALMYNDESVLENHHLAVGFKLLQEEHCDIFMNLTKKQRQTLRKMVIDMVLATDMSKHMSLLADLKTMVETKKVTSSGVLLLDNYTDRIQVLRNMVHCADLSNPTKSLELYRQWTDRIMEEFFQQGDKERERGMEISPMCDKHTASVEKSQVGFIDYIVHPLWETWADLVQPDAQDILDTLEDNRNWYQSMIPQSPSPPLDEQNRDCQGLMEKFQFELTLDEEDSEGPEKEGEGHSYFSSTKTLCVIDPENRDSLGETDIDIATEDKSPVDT
T3 sequence (Q08499 with tags, fused parts or gaps isoform Q08499-6): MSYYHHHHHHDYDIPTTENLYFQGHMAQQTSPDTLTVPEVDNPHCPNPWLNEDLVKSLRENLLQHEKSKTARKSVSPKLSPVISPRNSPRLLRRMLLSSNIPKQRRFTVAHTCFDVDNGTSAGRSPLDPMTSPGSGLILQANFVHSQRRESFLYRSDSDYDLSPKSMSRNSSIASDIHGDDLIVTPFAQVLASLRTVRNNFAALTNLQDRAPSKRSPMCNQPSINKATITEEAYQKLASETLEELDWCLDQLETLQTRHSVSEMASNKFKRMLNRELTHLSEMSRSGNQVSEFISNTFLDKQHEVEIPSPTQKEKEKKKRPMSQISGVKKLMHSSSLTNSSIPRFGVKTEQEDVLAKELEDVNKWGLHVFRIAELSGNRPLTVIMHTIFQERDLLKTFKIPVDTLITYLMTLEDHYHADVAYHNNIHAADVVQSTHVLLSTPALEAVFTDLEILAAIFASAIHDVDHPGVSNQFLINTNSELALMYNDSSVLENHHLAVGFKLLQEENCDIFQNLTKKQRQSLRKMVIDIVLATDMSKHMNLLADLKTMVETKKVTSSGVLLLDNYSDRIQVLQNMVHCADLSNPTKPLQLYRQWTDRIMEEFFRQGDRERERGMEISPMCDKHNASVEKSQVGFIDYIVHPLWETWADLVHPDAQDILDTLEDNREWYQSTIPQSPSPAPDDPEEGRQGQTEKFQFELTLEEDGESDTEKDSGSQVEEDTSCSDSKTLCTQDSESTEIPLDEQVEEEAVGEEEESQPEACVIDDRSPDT
T1 sequence (Q07343 324-700): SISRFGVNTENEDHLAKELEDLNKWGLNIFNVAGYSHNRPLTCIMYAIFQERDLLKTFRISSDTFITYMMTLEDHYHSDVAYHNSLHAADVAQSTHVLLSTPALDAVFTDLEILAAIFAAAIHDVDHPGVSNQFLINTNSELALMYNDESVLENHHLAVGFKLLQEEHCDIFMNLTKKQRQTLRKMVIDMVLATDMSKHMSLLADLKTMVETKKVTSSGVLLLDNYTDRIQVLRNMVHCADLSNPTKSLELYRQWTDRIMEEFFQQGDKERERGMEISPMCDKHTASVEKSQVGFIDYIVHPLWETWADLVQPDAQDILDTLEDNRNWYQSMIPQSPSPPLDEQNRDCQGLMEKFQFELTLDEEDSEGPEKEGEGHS

Consider `COc1ccc(-c2cn(S(=O)(=O)c3cccc4cccnc34)c3ncccc23)cc1OC` [Compound 7, 8-[3-(3,4-dimethoxy-phenyl)-pyrrolo[2,3-b]pyridine-1-sulfonyl]-quinoline], for which the IC50 was less than 10 µM in assay [1], less than 10 µM in assay [2], less than 10 µM in assay [3] and no more than 10 µM in assay [4]. Moreover, the inhibition in vivo at 50 mg/kg in assay [5] (50 mg/kg po or ip) is no less than 20%.

In the case of `COc1ccc(-c2cn(C(=O)c3c(OCC(F)(F)F)ccc4ccccc34)c3ncccc23)cc1OC` [Compound 112, [3-(3,4-Dimethoxy-phenyl)-pyrrolo[2,3-b]pyridin-1-yl]-[2-(2,2,2-trifluoro-ethoxy)-naphthalen-1-yl]-methanone], the IC50 in assay [2] and in assay [3] was less than 10 µM each time. The inhibition in vivo at 3 mg/kg in assay [5] (3 mg/kg po) is no less than 20%.

With `COc1ccc(-c2cn(C(=O)c3ccccc3OC(C)=O)c3ncccc23)cc1OC` [Compound 110, Acetic acid 2-[3-(3,4-dimethoxy-phenyl)-pyrrolo[2,3-b]pyridine-1-carbonyl]-phenyl ester], the IC50 was less than 10 µM in assay [1], less than 10 µM in assay [2], less than 10 µM in assay [3] and no more than 10 µM in assay [4]. Moreover, the inhibition in vivo at 5 mg/kg in assay [5] was no less than 20%.

With `CCOc1ccc2ccccc2c1C(=O)n1ccc2c(-c3ccc(OC)c(OC)c3)ccnc21` [Compound 48, [4-(3,4-Dimethoxy-phenyl)-pyrrolo[2,3-b]pyridin-1-yl]-(2-ethoxy-naphthalen-1-yl)-methanone], the IC50 in assay [1] is less than 10 µM; in assay [2], less than 10 µM; in assay [3], less than 10 µM; in assay [4] it was no more than 10 µM. Besides, the inhibition in vivo at 5 mg/kg in assay [5] was no less than 20%.

On to `CCOc1ccccc1C(=O)n1ccc2cc(-c3ccc(OC)c(OC)c3)cnc21` [Compound 83, [5-(3,4-Dimethoxy-phenyl)-pyrrolo[2,3-b]pyridin-1-yl]-(2-ethoxy-phenyl)-methanone], for which the IC50 in assay [1] is less than 10 µM; in assay [2] it was less than 10 µM; in assay [3], less than 10 µM; in assay [4], no more than 10 µM. For the same compound, the inhibition in vivo at 5 mg/kg in assay [5] is no less than 20%.

On to `COc1ccc(-c2ccnc3c2ccn3S(=O)(=O)c2cccc3cccnc23)cc1OC` [Compound 126, 8-[4-(3,4-Dimethoxy-phenyl)-pyrrolo[2,3-b]pyridine-1-sulfonyl]-quinoline], for which the IC50 is less than 10 µM in assay [1], less than 10 µM in assay [2], less than 10 µM in assay [3] and no more than 10 µM in assay [4]. Besides, in assay [5], the inhibition in vivo at 5 mg/kg was no less than 20%.

The term IC50 denotes the concentration that inhibits the measured activity by half.
